Reference: patent publication US11986487B2, “Mixture of HMOS for treating wheat sensitivity” (GLYCOM A/S, priority 2017, dated 2024)

Test system: human LS174T cell culture model of goblet cells
Assay: Goblet cell gene expression by quantitative RT-PCR
Format: cell-based
Settings: 5 mg HMO/ml, compared to control cultures
Experimental: 2′-FL and LNnT are tested with respect to their ability to induce MUC2, TFF3, EIMβ, CHST5, and GAL3ST2 expression in the human LS174T cell culture model of goblet cells. The human LS174T cell line is obtained from the American Type Culture Collection (ATCC). LS174T cells are maintained in minimum essential medium (MEM) supplemented according to instructions at 37° C. in air containing 5% of CO2. 2′-FL and LNnT are dissolved in cell culture grade water to the required concentration. The LS174T cells are treated with the HMO solution containing 0 or 5 mg HMO/ml. The LS174T cells are collected and suspended in Trizol reagent and total RNA is isolated using an RNA analysis kit (Qiagen) according to the manufacturer's instructions and the RNA isolates are quantified using Nanodrop analysis (Thermo Fisher Scientific). RNA isolates are reverse transcribed using a high capacity cDNA Reverse Transcription Kit (Applied Biosystems) to create cDNA, which is then used to assess gene expression via quantitative RT-PCR. For the quantitative RT-PCR, specific TaqMAN gene expression assays are obtained from Applied Biosystems, which include expression assays for MUC2, TFF3, CHST5 and GAL3ST2. Quantitative real-time PCR is performed using TaqMAN PCR Master Mix (Applied Biosystems). Reactions are run in duplicates in a 384-well plate using an Applied Biosystems 7900HT Fast Real-Time PCR System. The results are analysed using SDS 2.3 software and calculated by delta Ct method. All samples are normalized to Gus-β expression and fold induction is calculated over untreated controls. Gene expression is expressed as fold increase compared to HMO-free control cells. The experiment is repeated three times.

| Compound | expression of CHST5 | expression of GAL3ST2 | expression of the MUC2 gene | expression of the TFF3 gene |
| --- | --- | --- | --- | --- |
| 2′-fucosyllactose [2′-FL] | minimal induction | lack of induction | increases | increases |
| CC(=O)N[C@H]1[C@H](O[C@H]2[C@@H](O)[C@@H](CO)O[C@@H](O[C@H]3[C@H](O)[C@@H](O)C(O)O[C@@H]3CO)[C@@H]2O)O[C@H](CO)[C@@H](O[C@@H]2O[C@H](CO)[C@H](O)[C@H](O)[C@H]2O)[C@@H]1O (mixture of isomers) [LNnT, lacto-N-neotetraose] | minimal induction | lack of induction | increases | increases |
